Values after ≈ are worked out from the molar mass of the structure shown.
Legend:
[1] = test system: Sal. typhimurium ATCC 14028; assay: Antimicrobial activity, agar dilution; type: cell-based, Salmonella typhimurium; conditions: Salmonella enterica, 20 h, Agar Dextrose dilutions, 37°C, 20 heures, read-out: Activité pharmacologique antimicrobienne (concentrations)
Text: (§1) L'activité pharmacologique antimicrobienne de ces composés a été étudiée selon les références exposées ci-dessous.
(§2) Activité pharmacologique antimicrobienne : G.L. Daquet et Y.A. Chabbect, techniques en bactériologie, Vol. 3, Flammarion Médecine-Sciences, Paris 1972, et W.B. Hugo et A.D. Rusell, Pharmaceutical Microbiology, Blackwell Scientific Publications, London, 1977.
(§3) Milieu de culture et solvant : Agar d'antibiotiques n° 1 (Oxoid CM 327) Bouillon de triptone-soja (Oxoid CM 129) Solution Physiologique Ringer 1/4 (Oxoid BR 52) Agar Dextrose (BBL 11165)
(§4) Microorganismes : "Bacillus subtilis" ATCC 6633 "Citrobacter freundii" ATCC 112606 "Enterobacter aerogenes" ATCC 15038 "Enterobacter cloacae" ATCC 23355 "Bacillus cereus" ATCC 1178 "Escherichia coli" ATCC 10799 "Escherichia coli" ATCC 23559 "Klebsiella pneumoniae" ATCC 10031 "Proteus vulgaris" ATCC 8427 "Morg. morganii" ATCC 8019 "Pseudomonas aeruginosa" ATCC 9721 "Pseudomonas aeruginosa" ATCC 10145 "Salmonella typhimurium" ATCC 14028 "Salmonella typhimurium" ATCC 6539 "Serratia marcescens" ATCC 13880 "Shigella flexnerii" ATCC 12022 "Staphylococcusepidermis" ATCC 155-1 "Staphylococcus aureus" ATCC 25178 "Streptococcus faecalis" ATCC 10541.
(§5) Chacun des microorganismes est ensemencé par strie dans des tubes d'Agar d'antibiotiques n° 1, et mis en incubation pendant 20 heures à 37°C. Ensuite, on prend une anse de culture, on ensemence dans un bouillon de Triptone-soja et on incube pendant 20 heures à 37°C. On dilue à 1/4 la culture obtenue avec une solution physiologique Ringer, de façon à obtenir une suspension normalisée de […] pour chaque organisme.
(§6) A partir d'une solution de 100 µg/ml, chaque produit est dilué dans l'Agar Dextrose (préalablement fondu et maintenu à 50°C) par dilutions successives de façon à obtenir les concentrations suivantes : 64-32-16-8-4-2-1-0,5-0,25-0,125 µg de dérivé/ml du milieu.
(§7) Postérieurement, chaque concentration de chaque produit est répartie dans des boîtes de Petri de 10 cm de diamètre, à raison de 10 ml de milieu par boîte et autant de boîtes que de microorganismes à tester.
(§8) Une fois le milieu refroidi, les boîtes sont ensemencées avec les inoculations à raison de 0,4 ml d'inoculation par boîte. On les étend avec une anse de Driglasky et on recueille le surnageant. Les boîtes ensemencées sont incubées à 37°C pendant 20 heures.
(§9) Les résultats obtenus sont décrits dans les tableaux suivants. Les concentrations sont données en µg/ml.

[2] = test system: Ps. aeruginosa ATCC 10145; assay: Antimicrobial activity, agar dilution; type: cell-based; conditions: Pseudomonas aeruginosa, ATCC10145, 20 h, Agar Dextrose dilutions, 37°C, 20 heures, read-out: Activité pharmacologique antimicrobienne (concentrations)
Text: as §1, §2, §3, §4, §5, §6, §7, §8, §9

[3] = test system: Proteus vulgaris ATCC 8427; assay: Antimicrobial activity, agar dilution; type: cell-based; conditions: Proteus vulgaris, ATCC8427, 20 h, Agar Dextrose dilutions, 37°C, 20 heures, read-out: Activité pharmacologique antimicrobienne (concentrations)
Text: as §1, §2, §3, §4, §5, §6, §7, §8, §9

[4] = test system: Escherichia coli ATCC 10799; assay: Antimicrobial activity, agar dilution; type: cell-based; conditions: Escherichia coli, ATCC10799, 20 h, Agar Dextrose dilutions, 37°C, 20 heures, read-out: Activité pharmacologique antimicrobienne (concentrations)
Text: as §1, §2, §3, §4, §5, §6, §7, §8, §9

[5] = test system: Bacillus cereus ATCC 11778; assay: Antimicrobial activity, agar dilution; type: cell-based; conditions: Bacillus cereus, ATCC11778, 20 h, Agar Dextrose dilutions, 37°C, 20 heures, read-out: Activité pharmacologique antimicrobienne (concentrations)
Text: as §1, §2, §3, §4, §5, §6, §7, §8, §9

[6] = test system: Escherichia coli ATCC 23559; assay: Antimicrobial activity, agar dilution; type: cell-based; conditions: Escherichia coli, ATCC23559, 20 h, Agar Dextrose dilutions, 37°C, 20 heures, read-out: Activité pharmacologique antimicrobienne (concentrations)
Text: as §1, §2, §3, §4, §5, §6, §7, §8, §9

[7] = test system: Shigella flexnerii ATCC 12022; assay: Antimicrobial activity, agar dilution; type: cell-based; conditions: ATCC12022, 20 h, Agar Dextrose dilutions, 37°C, 20 heures, read-out: Activité pharmacologique antimicrobienne (concentrations)
Text: as §1, §2, §3, §4, §5, §6, §7, §8, §9

[8] = test system: Bacillus subtilis ATCC 6633; assay: Antimicrobial activity, agar dilution; type: cell-based; conditions: ATCC6633, 20 h, Agar Dextrose dilutions, 37°C, 20 heures, read-out: Activité pharmacologique antimicrobienne (concentrations)
Text: as §1, §2, §3, §4, §5, §6, §7, §8, §9

[9] = test system: Staph. epidermidis ATCC 155-1; assay: Antimicrobial activity, agar dilution; type: cell-based; conditions: Staphylococcus epidermidis, ATCC155, 20 h, Agar Dextrose dilutions, 37°C, 20 heures, read-out: Activité pharmacologique antimicrobienne (concentrations)
Text: as §1, §2, §3, §4, §5, §6, §7, §8, §9

Sal. typhi ATCC 6539 = assay: Antimicrobial activity, agar dilution; type: cell-based; conditions: Salmonella enterica, 20 h, read-out: Activité pharmacologique antimicrobienne (concentrations)
Text: as §1, §2, §3, §4, §5, §6, §7, §8, §9

Morg. morganii ATCC 8019 = assay: Antimicrobial activity, agar dilution; type: cell-based; conditions: Morganella morganii, ATCC8019, 20 h, Agar Dextrose dilutions, 37°C, 20 heures, read-out: Activité pharmacologique antimicrobienne (concentrations)
Text: as §1, §2, §3, §4, §5, §6, §7, §8, §9

Ps. aeruginosa ATCC 9721 = assay: Antimicrobial activity, agar dilution; type: cell-based; conditions: Pseudomonas aeruginosa, ATCC9721, 20 h, Agar Dextrose dilutions, 37°C, 20 heures, read-out: Activité pharmacologique antimicrobienne (concentrations)
Text: as §1, §2, §3, §4, §5, §6, §7, §8, §9

[10] = test system: Ent. aerogenes ATCC 15038; assay: Antimicrobial activity, agar dilution; type: cell-based, Enterobacter aerogenes; conditions: Klebsiella aerogenes, ATCC15038, 20 h, Agar Dextrose dilutions, 37°C, 20 heures, read-out: Activité pharmacologique antimicrobienne (concentrations)
Text: as §1, §2, §3, §4, §5, §6, §7, §8, §9

[11] = test system: Citr. freundii ATCC 11606; assay: Antimicrobial activity, agar dilution; type: cell-based, Citrobacter freundii; conditions: Citrobacter freundii, ATCC11606, 20 h, Agar Dextrose dilutions, 37°C, 20 heures, read-out: Activité pharmacologique antimicrobienne (concentrations)
Text: as §1, §2, §3, §4, §5, §6, §7, §8, §9

[12] = Solubility in water and at pH 7.4; type: physicochemical
Text: Un grand nombre des composés de l'invention manifestent une augmentation de la solubilité dans l'eau ainsi que de la solubilité à pH 7,4 lorsqu'on compare avec les composés de référence. L'augmentation de solubilité au pH physiologique peut favoriser l'absorption du produit et la solubilité élevée dans l'eau permet l'administration du composé par voie parentérale.

Ent. cloacae ATCC 23355 = assay: Antimicrobial activity, agar dilution; type: cell-based, Enterobacter cloacae; conditions: Enterobacter cloacae, ATCC23355, 20 h, Agar Dextrose dilutions, 37°C, 20 heures, read-out: Activité pharmacologique antimicrobienne (concentrations)
Text: as §1, §2, §3, §4, §5, §6, §7, §8, §9

[13] = test system: Kleb. pneumoniae ATCC 10031; assay: Antimicrobial activity, agar dilution; type: cell-based, Klebsiella pneumoniae; conditions: Klebsiella pneumoniae, ATCC10031, 20 h, Agar Dextrose dilutions, 37°C, 20 heures, read-out: Activité pharmacologique antimicrobienne (concentrations)
Text: as §1, §2, §3, §4, §5, §6, §7, §8, §9

Staph. aureus ATCC 25178 = assay: Antimicrobial activity, agar dilution; type: cell-based, Staphylococcus aureus; conditions: Staphylococcus aureus, ATCC25178, 20 h, Agar Dextrose dilutions, 37°C, 20 heures, read-out: Activité pharmacologique antimicrobienne (concentrations)
Text: as §1, §2, §3, §4, §5, §6, §7, §8, §9

[14] = test system: Strep. faecalis ATCC 10541; assay: Antimicrobial activity, agar dilution; type: cell-based, Streptococcus faecalis; conditions: Enterococcus faecalis, ATCC10541, 20 h, Agar Dextrose dilutions, 37°C, 20 heures, read-out: Activité pharmacologique antimicrobienne (concentrations)
Text: as §1, §2, §3, §4, §5, §6, §7, §8, §9

[15] = test system: Serr. marcescens ATCC 13880; assay: Antimicrobial activity, agar dilution; type: cell-based, Serratia marcescens; conditions: Serratia marcescens, ATCC13880, 20 h, Agar Dextrose dilutions, 37°C, 20 heures, read-out: Activité pharmacologique antimicrobienne (concentrations)
Text: as §1, §2, §3, §4, §5, §6, §7, §8, §9

Structure (SMILES)	MIC [1] [µg/mL]	MIC [2] [µg/mL]	MIC [3] [µg/mL]	MIC [4] [µg/mL]	MIC [5] [µg/mL]	MIC [6] [µg/mL]	MIC [7] [µg/mL]	MIC [8] [µg/mL]	MIC [9] [µg/mL]	MIC (Sal. typhi ATCC 6539) [µg/mL]	MIC (Morg. morganii ATCC 8019) [µg/mL]	MIC (Ps. aeruginosa ATCC 9721) [µg/mL]	MIC [10] [µg/mL]	MIC [11] [µg/mL]	solubility ([12]; pH 7) [µg/mL]	solubility ([12]; water) [µg/mL]	MIC (Ent. cloacae ATCC 23355) [µg/mL]	MIC [13] [µg/mL]	MIC (Staph. aureus ATCC 25178) [µg/mL]	MIC [14] [µg/mL]	further results
C[C@H](N)C(=O)N[C@@H](C)C(=O)N[C@@H]1CN(c2nc3c(cc2F)c(=O)c(C(=O)O)cn3C2CC2)[C@H]1C [Exemple 4aAA]	2 (≈ 4.22 µM)	> 16	8 (≈ 16.9 µM)	2 (≈ 4.22 µM)	16 (≈ 33.7 µM)	2 (≈ 4.22 µM)	2 (≈ 4.22 µM)	1 (≈ 2.11 µM)	8 (≈ 16.9 µM)	2 (≈ 4.22 µM)	4 (≈ 8.43 µM)	> 16	2 (≈ 4.22 µM)	2 (≈ 4.22 µM)	> 500	> 500	2 (≈ 4.22 µM)	8 (≈ 16.9 µM)	4 (≈ 8.43 µM)	> 16	MIC [15]: 8 µg/mL (≈ 16.9 µM)
CC(C)C[C@H](N)C(=O)N[C@@H]1CN(c2nc3c(cc2F)c(=O)c(C(=O)O)cn3C2CC2)[C@H]1C [Exemple 4aL, chlorhydratede l'acide 7-[(2S,3R)-2-méthyl-3-Leu-amino-1-azétidinyl]-1-cyclopropyl-6-fluoro-1,4-dihydro-4-oxo-1,8-naphtyridine-3-carboxylique]	0.12	8	0.25	0.12	0.12	0.06	0.06	0.12	0.25	0.12	0.25	2	0.12	0.12	> 500	> 500	0.12	0.06	0.25	2	MIC [15]: 0.25 µg/mL
C[C@H](N)C(=O)NC1CN(c2nc3c(cc2F)c(=O)c(C(=O)O)cn3-c2ccc(F)cc2F)C1 [Exemple 4bA, chlorhydratede l'acide 7-(3-Ala-amino-1-azétidinyl)-1-(2,4-difluorophényl)-6-fluoro-1,4-dihydro-4-oxo-1,8-naphtyridine-3-carboxylique]	2	16	8	2	4	1	1	0.5	4	1	2	8	1	1	66.9	128	1	1	1	8	MIC [15]: 8 µg/mL
NCC(=O)NC1CN(c2nc3c(cc2F)c(=O)c(C(=O)O)cn3-c2ccc(F)cc2F)C1 [Exemple 4bG]	4 (≈ 8.94 µM)	> 32	8 (≈ 17.9 µM)	2 (≈ 4.47 µM)	1 (≈ 2.24 µM)	0.5 (≈ 1.12 µM)	0.5 (≈ 1.12 µM)	1 (≈ 2.24 µM)	2 (≈ 4.47 µM)	1 (≈ 2.24 µM)	4 (≈ 8.94 µM)	16 (≈ 35.8 µM)	1 (≈ 2.24 µM)	1 (≈ 2.24 µM)	7.6 (≈ 17 µM)	> 500	1 (≈ 2.24 µM)	1 (≈ 2.24 µM)	1 (≈ 2.24 µM)	16 (≈ 35.8 µM)	MIC [15]: 16 µg/mL (≈ 35.8 µM)
CC(C)C[C@H](N)C(=O)NC1CN(c2nc3c(cc2F)c(=O)c(C(=O)O)cn3-c2ccc(F)cc2F)C1 [Exemple 4bL, chlorhydratede l'acide 7-(3-Leu-amino-1-azétidinyl)-1-(2,4-difluorophényl)-6-fluoro-1,4-dihydro-4-oxo-1,8-naphtyridine-3-carboxylique]	1	8	2	1	0.5	0.25	0.25	0.25	1	1	2	4	0.5	1	23.1	> 500	0.5	0.12	4	1	MIC [15]: 2 µg/mL
C[C@H](N)C(=O)N[C@@H]1CN(c2cc3c(cc2F)c(=O)c(C(=O)O)cn3-c2ccc(F)cc2F)[C@H]1C [Exemple 4eA]	2 (≈ 4.22 µM)	8 (≈ 16.9 µM)	16 (≈ 33.7 µM)	2 (≈ 4.22 µM)	1 (≈ 2.11 µM)	1 (≈ 2.11 µM)	0.5 (≈ 1.05 µM)	0.5 (≈ 1.05 µM)	16 (≈ 33.7 µM)	2 (≈ 4.22 µM)	4 (≈ 8.43 µM)	8 (≈ 16.9 µM)	2 (≈ 4.22 µM)	2 (≈ 4.22 µM)	> 500	> 500	2 (≈ 4.22 µM)	2 (≈ 4.22 µM)	1 (≈ 2.11 µM)	8 (≈ 16.9 µM)	MIC [15]: 8 µg/mL (≈ 16.9 µM)
